The source of these data is PubChem BioAssay (NCI).

Among the test systems are SF-295 CNS; OVCAR-5 ovarian; EKVX NSCLC; KM12 colon; U251 CNS; HCC-2998 colon; 786-0 renal; OVCAR-4 ovarian; HCT-15 colon; A549 NSCLC; MDA-N; SN12C renal; ACHN renal; SNB-19 CNS; HCT-116 colon; NCI-H23 lung; BT-549 breast.
Assay in all cases: NCI tumour cell line growth inhibition, 48 h

Molecules are shown by their SMILES.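 These data come from cells grown in 96-well plates and exposed to compound for 48 hours at five concentrations. Definition used: TGI = concentration required for complete inhibition of growth.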 Bounds are passed on as bounds.

Turning to `COc1cccc([C@@H]2C/C(=N\NC(=O)C(=O)N[C@@H](C)c3ccccc3)c3ccccc3N2)c1`, the TGI with SF-295 CNS, in the assay on OVCAR-5 ovarian, in the assay on EKVX NSCLC, in the assay on KM12 colon, in the assay on U251 CNS and in the assay on HCC-2998 colon was > 100 µM each time. Moreover, the TGI with 786-0 renal, with OVCAR-4 ovarian, in the assay on HCT-15 colon, with A549 NSCLC, with MDA-N and in the assay with SN12C renal was > 100 µM throughout. Moreover, the TGI in the assay on ACHN renal, with SNB-19 CNS and in the assay on HCT-116 colon was > 100 µM throughout.

Regarding `CC(C(=O)NCNC(=O)c1ccccc1)C(=O)Nc1ccccc1` (centres undefined), the TGI with SF-295 CNS, in the assay on OVCAR-5 ovarian, in the assay with EKVX NSCLC, with KM12 colon, in the assay with U251 CNS and with 786-0 renal was > 100 µM each time. In addition, the TGI with NCI-H23 lung, in the assay with HCT-15 colon, with A549 NSCLC, in the assay on BT-549 breast, in the assay with MDA-N and in the assay on SN12C renal was > 100 µM in each case. The TGI in the assay with ACHN renal, in the assay on SNB-19 CNS and in the assay with HCT-116 colon was > 100 µM throughout.

For `NC(=O)c1ncn(C2C=CC(CP(=O)(O)O)C2)c1N` (centres undefined), the TGI in the assay on SF-295 CNS, in the assay with OVCAR-5 ovarian, in the assay on EKVX NSCLC, with KM12 colon, with U251 CNS and in the assay on HCC-2998 colon was > 100 µM in each case. In addition, the TGI in the assay on 786-0 renal, with OVCAR-4 ovarian, in the assay with NCI-H23 lung, in the assay on HCT-15 colon, with A549 NSCLC and in the assay with MDA-N was > 100 µM in each case. The TGI in the assay with SN12C renal, in the assay with ACHN renal, in the assay on SNB-19 CNS and in the assay with HCT-116 colon was > 100 µM each time.

As for `O=C1c2ccccc2CC12Cc1cc3c(cc1C2)CCC3`, the TGI is > 100 µM in the assay with SF-295 CNS; > 100 µM with OVCAR-5 ovarian; > 100 µM in the assay with EKVX NSCLC; 93.9 µM with KM12 colon; > 100 µM with U251 CNS; > 100 µM in the assay with HCC-2998 colon. Further, the TGI in the assay with 786-0 renal, in the assay with OVCAR-4 ovarian, in the assay with NCI-H23 lung, in the assay on HCT-15 colon, in the assay with A549 NSCLC and with MDA-N was > 100 µM in each case. Moreover, the TGI with SN12C renal, in the assay with ACHN renal, in the assay with SNB-19 CNS and with HCT-116 colon was > 100 µM throughout.

On to `O=c1c2ccccc2n2c(-c3ccccc3O)nnc2n1-c1ccccc1`, for which the TGI in the assay with SF-295 CNS, with OVCAR-5 ovarian, in the assay on EKVX NSCLC, in the assay on KM12 colon, with U251 CNS and in the assay with HCC-2998 colon was > 100 µM in each case. Also, the TGI in the assay with 786-0 renal, in the assay with OVCAR-4 ovarian, in the assay with NCI-H23 lung, in the assay on HCT-15 colon, in the assay with A549 NSCLC and in the assay with MDA-N was > 100 µM in each case. In addition, the TGI in the assay on SN12C renal, with ACHN renal, in the assay with SNB-19 CNS and in the assay with HCT-116 colon was > 100 µM in each case.

With `CC(C)CC(=O)CC(C)[C@]1(CCCOCc2ccccc2)C(=O)N2CCC3(C[C@@]24CCC[C@H]41)OCCO3` (some centres undefined), the TGI in the assay on SF-295 CNS, with OVCAR-5 ovarian, with EKVX NSCLC, with KM12 colon, in the assay with U251 CNS and in the assay with HCC-2998 colon was > 10 µM each time. The TGI in the assay with 786-0 renal, in the assay on OVCAR-4 ovarian, with NCI-H23 lung, with HCT-15 colon, with MDA-N and in the assay with SN12C renal was > 10 µM each time. Moreover, the TGI in the assay on SNB-19 CNS is > 10 µM.

In the case of `CC(=O)C1C(=O)C(=O)N(c2ccc([N+](=O)[O-])cc2[N+](=O)[O-])C1=O` (centres undefined), the TGI with SF-295 CNS, with OVCAR-5 ovarian, in the assay on EKVX NSCLC, in the assay with KM12 colon, with U251 CNS and with HCC-2998 colon was > 100 µM each time. For the same compound, the TGI with 786-0 renal, with OVCAR-4 ovarian, in the assay with NCI-H23 lung, with HCT-15 colon, in the assay on A549 NSCLC and in the assay with BT-549 breast was > 100 µM each time. Moreover, the TGI in the assay on SN12C renal, in the assay with ACHN renal, with SNB-19 CNS and in the assay on HCT-116 colon was > 100 µM in each case.

Regarding `CSc1nc(-c2ccccc2)[nH]c(=O)n1`, the TGI in the assay on SF-295 CNS, in the assay with OVCAR-5 ovarian, in the assay on EKVX NSCLC, in the assay with KM12 colon, with U251 CNS and in the assay with HCC-2998 colon was > 100 µM throughout. Also, the TGI in the assay on 786-0 renal, in the assay on OVCAR-4 ovarian, with NCI-H23 lung, in the assay on HCT-15 colon, in the assay on A549 NSCLC and in the assay with BT-549 breast was > 100 µM in each case. In addition, the TGI in the assay on SN12C renal, in the assay with ACHN renal, in the assay on SNB-19 CNS and with HCT-116 colon was > 100 µM throughout.

For `Cc1nc2ccc(Cl)cc2c2c1CCN2c1ccc(F)cc1`, the TGI in the assay on SF-295 CNS, in the assay on OVCAR-5 ovarian, in the assay on EKVX NSCLC, with KM12 colon, in the assay on U251 CNS and in the assay with HCC-2998 colon was > 100 µM each time. Moreover, the TGI with 786-0 renal, in the assay with OVCAR-4 ovarian, in the assay on NCI-H23 lung, in the assay with HCT-15 colon, in the assay with A549 NSCLC and with MDA-N was > 100 µM in each case. For the same compound, the TGI in the assay with SN12C renal, in the assay with ACHN renal, in the assay with SNB-19 CNS and with HCT-116 colon was > 100 µM in each case.
